This is an account of results in article PMC8119466, “A screen of FDA-approved drugs identifies inhibitors of protein tyrosine phosphatase 4A3 (PTP4A3 or PRL-3)” (Scientific Reports, 2021).

Molecules are shown by their SMILES. Where a name gives a salt, the structure may show the parent alone. Read-outs that look alike come from different tables or passages of the source.

What all share (format): biochemical
The target of one experiment is T1, recombinant PRL-1 (Homo sapiens, UniProt Q93096).
T1 construct: 6xHis (N, cleaved yes); made in house; host or cells: E. coli One Shot BL21 Star
T1 sequence (Q93096 1-173): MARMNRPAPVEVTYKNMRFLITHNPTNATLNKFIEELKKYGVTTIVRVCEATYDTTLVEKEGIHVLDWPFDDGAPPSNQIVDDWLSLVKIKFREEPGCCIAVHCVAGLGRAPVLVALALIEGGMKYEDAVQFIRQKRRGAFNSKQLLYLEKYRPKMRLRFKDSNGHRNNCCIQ
Kind of experiment: In vitro phosphatase assay (DiFMUP hydrolysis), PRL-1. Further: test concentration or dose not given here.

For another experiment, the target named is T2, recombinant PRL-2 (Homo sapiens, UniProt Q12974).
T2 construct: 6xHis (N, cleaved yes); made in house; host or cells: E. coli One Shot BL21 Star
T2 sequence (Q12974 1-167): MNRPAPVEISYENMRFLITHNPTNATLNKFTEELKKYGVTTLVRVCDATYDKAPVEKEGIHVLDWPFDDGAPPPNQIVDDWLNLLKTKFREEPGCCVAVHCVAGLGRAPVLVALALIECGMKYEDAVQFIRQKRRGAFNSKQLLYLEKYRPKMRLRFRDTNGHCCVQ
As to the kind of experiment: In vitro phosphatase assay (DiFMUP hydrolysis), PRL-2.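 Further: PRL-2 activity read as DiFMUP hydrolysis after 20 min at room temperature with drug, enzyme first pre-reduced at 4 °C for 20 min.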

A further experiment concerns the target T3, recombinant PRL-3 (Homo sapiens, UniProt O75365).
T3 construct: 6xHis (N, cleaved yes); made in house; host or cells: E. coli One Shot BL21 Star
As to the kind of experiment: In vitro phosphatase assay (DiFMUP hydrolysis), PRL-3. Further: test concentration or dose not given here.

Setting [1] is: FDA-approved drug screen, compared to DMSO.
Setting [2] is: FDA-approved drug screen, activity compared to DMSO.

T3 sequence (O75365 whole entry): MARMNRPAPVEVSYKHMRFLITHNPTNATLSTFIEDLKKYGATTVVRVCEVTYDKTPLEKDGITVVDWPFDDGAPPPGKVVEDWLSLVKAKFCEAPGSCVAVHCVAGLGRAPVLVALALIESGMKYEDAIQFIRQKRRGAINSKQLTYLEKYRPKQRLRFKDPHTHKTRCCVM

For `CCC[S+]([O-])c1ccc2[nH]c(NC(=O)OC)nc2c1` (stereo not drawn) [Albendazole Oxide], at recombinant PRL-1 (setting [1]), the “% Phosphatase Activity (compared to DMSO) PRL-1” value is on record as 93%. Also, on recombinant PRL-2 (setting [1]), the “% Phosphatase Activity (compared to DMSO) PRL-2” value was 100%. Moreover, the “% Phosphatase Activity (compared to DMSO) PRL-3” value on recombinant PRL-3 (setting [1]) is 95%.

Regarding `NCCCC(O)(P(=O)(O)O)P(=O)(O)O` [Alendronate], the “% Phosphatase Activity (compared to DMSO) PRL-1” value at recombinant PRL-1 is given as 110%. For the same compound, the “% Phosphatase Activity (compared to DMSO) PRL-2” value on recombinant PRL-2 is recorded as 93%. For the same compound, the “% Phosphatase Activity (compared to DMSO) PRL-3” value on recombinant PRL-3 was found to be 79%.

With `C[C@]12Cc3c[nH]nc3C[C@@H]1CC[C@@H]1[C@@H]2CC[C@@]2(C)[C@H]1CC[C@]2(C)O` [Stanozolol], the “% Phosphatase Activity (compared to DMSO) PRL-1” value at recombinant PRL-1 worked out at 89%. Also, at recombinant PRL-2, the “% Phosphatase Activity (compared to DMSO) PRL-2” value was 84%. Besides, the “% Phosphatase Activity (compared to DMSO) PRL-3” value on recombinant PRL-3 turned out to be 93%.

As for `C[C@]12CC[C@H]3[C@@H](CC[C@@]45O[C@@H]4C(O)=C(C#N)C[C@]35C)[C@@H]1CC[C@@H]2O` [Trilostane], on recombinant PRL-1 (setting [2]), the “% Phosphatase Activity (compared to DMSO) PRL-1” value is 97%. In addition, the “% Phosphatase Activity (compared to DMSO) PRL-2” value on recombinant PRL-2 (setting [2]) is 110%. The “% Phosphatase Activity (compared to DMSO) PRL-3” value on recombinant PRL-3 (setting [2]) turned out to be 88%.

`CN1CCCCC1CCN1c2ccccc2Sc2ccc([S+](C)[O-])cc21` (stereo not drawn) [Mesoridazine Besylate]: the “% Phosphatase Activity (compared to DMSO) PRL-1” value at recombinant PRL-1 is reported as 98%. For the same compound, the “% Phosphatase Activity (compared to DMSO) PRL-2” value at recombinant PRL-2 stood at 95%. Moreover, at recombinant PRL-3, the “% Phosphatase Activity (compared to DMSO) PRL-3” value worked out at 99%.

Take `Nc1ccccc1NC(=O)c1ccc(CNc2nccc(-c3cccnc3)n2)cc1` [Mocetinostat (MGCD0103)]: the “% Phosphatase Activity (compared to DMSO) PRL-1” value on recombinant PRL-1 (setting [1]) amounted to 98%. In addition, the “% Phosphatase Activity (compared to DMSO) PRL-2” value at recombinant PRL-2 (setting [1]) was 108%. In addition, on recombinant PRL-3 (setting [1]), the “% Phosphatase Activity (compared to DMSO) PRL-3” value is listed as 84%.

For the compound `O=C1O[C@H]([C@@H](O)CO)C(O)=C1O` [Vitamin C], the “% Phosphatase Activity (compared to DMSO) PRL-1” value on recombinant PRL-1 (setting [2]) is 96%. Also, the “% Phosphatase Activity (compared to DMSO) PRL-2” value on recombinant PRL-2 (setting [2]) came out at 105%. For the same compound, the “% Phosphatase Activity (compared to DMSO) PRL-3” value at recombinant PRL-3 (setting [2]) is on record as 75%.

Turning to `COc1ccc2[nH]c([S+]([O-])Cc3ncc(C)c(OC)c3C)nc2c1` (stereo not drawn) [Omeprazole], on recombinant PRL-1 (setting [1]), the “% Phosphatase Activity (compared to DMSO) PRL-1” value worked out at 89%. Further, the “% Phosphatase Activity (compared to DMSO) PRL-2” value at recombinant PRL-2 (setting [1]) is recorded as 96%. Also, at recombinant PRL-3 (setting [1]), the “% Phosphatase Activity (compared to DMSO) PRL-3” value was 54%.

For the compound `C#CCC(Cc1cnc2nc(N)nc(N)c2n1)c1ccc(C(=O)N[C@@H](CCC(=O)O)C(=O)O)cc1` (stereo partly drawn) [Pralatrexate], the “% Phosphatase Activity (compared to DMSO) PRL-1” value on recombinant PRL-1 (setting [1]) is on record as 1180%. The “% Phosphatase Activity (compared to DMSO) PRL-2” value on recombinant PRL-2 (setting [1]) is recorded as 1210%. In addition, the “% Phosphatase Activity (compared to DMSO) PRL-3” value at recombinant PRL-3 (setting [1]) turned out to be 875%.

In the case of `COc1ccc([C@H]2CNC(=O)C2)cc1OC1CCCC1` [S- (+)-Rolipram], at recombinant PRL-1 (setting [1]), the “% Phosphatase Activity (compared to DMSO) PRL-1” value is recorded as 107%. Further, the “% Phosphatase Activity (compared to DMSO) PRL-2” value at recombinant PRL-2 (setting [1]) is on record as 110%. In addition, the “% Phosphatase Activity (compared to DMSO) PRL-3” value at recombinant PRL-3 (setting [1]) is recorded as 87%.

On to `CN(C)Cc1c(C(=O)NCCOc2ccc(C(=O)NO)cc2)oc2ccccc12` [PCI-24781 (Abexinostat)], for which the “% Phosphatase Activity (compared to DMSO) PRL-1” value on recombinant PRL-1 (setting [1]) turned out to be 100%. In addition, at recombinant PRL-2 (setting [1]), the “% Phosphatase Activity (compared to DMSO) PRL-2” value was found to be 96%. The “% Phosphatase Activity (compared to DMSO) PRL-3” value at recombinant PRL-3 (setting [1]) amounted to 86%.

As to `NC(=O)NO` [Hydroxyurea], at recombinant PRL-1 (setting [1]), the “% Phosphatase Activity (compared to DMSO) PRL-1” value amounted to 91%. Further, the “% Phosphatase Activity (compared to DMSO) PRL-2” value at recombinant PRL-2 (setting [1]) was found to be 113%. On recombinant PRL-3 (setting [1]), the “% Phosphatase Activity (compared to DMSO) PRL-3” value is 100%.

With `O=c1[nH]c2ccccc2n1CCCN1CCC(n2c(=O)[nH]c3cc(Cl)ccc32)CC1` [Domperidone], the “% Phosphatase Activity (compared to DMSO) PRL-1” value on recombinant PRL-1 (setting [1]) is 118%. On recombinant PRL-2 (setting [1]), the “% Phosphatase Activity (compared to DMSO) PRL-2” value amounted to 112%. Moreover, at recombinant PRL-3 (setting [1]), the “% Phosphatase Activity (compared to DMSO) PRL-3” value was 79%.

On to `Cn1cc(C2=C(c3cn(C4CCN(Cc5ccccn5)CC4)c4ccccc34)C(=O)NC2=O)c2ccccc21` [Enzastaurin (LY317615)], for which, on recombinant PRL-1 (setting [1]), the “% Phosphatase Activity (compared to DMSO) PRL-1” value is listed as 82%. For the same compound, the “% Phosphatase Activity (compared to DMSO) PRL-2” value on recombinant PRL-2 (setting [1]) is listed as 76%. Besides, the “% Phosphatase Activity (compared to DMSO) PRL-3” value at recombinant PRL-3 (setting [1]) came to 82%.

Regarding `CC(NCCc1ccc(O)cc1)C(O)c1ccc(O)cc1` (stereo not drawn) [Ritodrine HCl], on recombinant PRL-1 (setting [1]), the “% Phosphatase Activity (compared to DMSO) PRL-1” value is 113%. The “% Phosphatase Activity (compared to DMSO) PRL-2” value at recombinant PRL-2 (setting [1]) worked out at 98%. Besides, on recombinant PRL-3 (setting [1]), the “% Phosphatase Activity (compared to DMSO) PRL-3” value was 83%.

Regarding `CC1CC(OC(=O)C(O)c2ccccc2)CC(C)(C)C1` (stereo not drawn) [Cyclandelate], the “% Phosphatase Activity (compared to DMSO) PRL-1” value at recombinant PRL-1 (setting [1]) stood at 82%. Moreover, the “% Phosphatase Activity (compared to DMSO) PRL-2” value at recombinant PRL-2 (setting [1]) came to 84%. Besides, the “% Phosphatase Activity (compared to DMSO) PRL-3” value at recombinant PRL-3 (setting [1]) stood at 74%.

Regarding `OC[C@H]1OC(O)[C@H](O)[C@@H](O)[C@@H]1O` (stereo partly drawn) [Dextrose], on recombinant PRL-1 (setting [1]), the “% Phosphatase Activity (compared to DMSO) PRL-1” value is reported as 106%. The “% Phosphatase Activity (compared to DMSO) PRL-2” value on recombinant PRL-2 (setting [1]) is given as 113%. In addition, the “% Phosphatase Activity (compared to DMSO) PRL-3” value at recombinant PRL-3 (setting [1]) was found to be 79%.
